We go through 14 compounds from patent publication US11634447B2 (priority 2012, dated 2023).

Assay [1] deals with T1, FimH-CRD (Escherichia coli, UniProt P08191).
T1 construct: The first 177 amino acids of the FimH protein are expressed as a fusion protein; thrombin tag (printed as 'fusion protein with thrombin') (cleaved yes); made in house; host or cells: bacteria (pET21b plasmid)
In words: Competitive binding assay by fluorescence polarization, assay 1 (compounds prepared by manual dilution). On the set-up: species or system E. coli. As to the method:
(§1) The first 177 amino acids of the FimH protein are expressed as a fusion protein with thrombin in a pET21b plasmid in bacteria. This FimH protein sequence contains the carbohydrate recognition domain (CRD) and shall be termed FimH-CRD. Following bacterial expression of the protein, the FimH-CRD protein is purified to homogeneity and the thrombin tag removed by protease cleavage. A competitive binding assay by fluorescence polarization is performed using 5 nM of the Alexa 647 mannoside probe and 60 nM of the FimH-CRD. The samples are assayed in a low volume 384 well microtiter plate in a final volume of 20 μl. The final assay buffer conditions are the following, 50 mM Tris-Cl, ph 7.0, 100 mM NaCl, 1 mM EDTA, 5 mM β-mercaptoethanol, 0.05% BSA and 2.5% DMSO. Two assays are performed for FimH, termed assay 1 or assay 2. The assay conditions are the same for both assays except the following: assay 1 has compounds prepared by manual dilution in a serial dilution factor with 12-point dose response while assay 2 has compounds prepared by a robotics system also through a serial dilution factor (12 point dose response) and initially prepared in duplicate in 384 well-Corning polypropylene round bottom plates. The assay 2 plates have compound which is then frozen and must be thawed prior to use. Initially the Alexa 647 probe and the FimH-CRD are added to the assay buffer and then 0.5 μl of test compound (assay 1 or 2) between 0.4 nM to 75 μM final concentration are added (12 point titration with 3-fold serial dilution). Control wells for the Alexa 647 probe are prepared with the same conditions except for the addition of the FimH-CRD protein. Plates are then incubated for 5 hrs at room temperature in the dark and under humid conditions to prevent drying. Plates are read using the SpectraMax Paradigm multi-mode plate reader and the appropriate fluorescent polarization detection cartridge (Alexa-647).
(§2) Alexa 647 mannoside probe is prepared using the similar procedure reported for FAM mannoside (Han, Z. et. al., 2010, J. Med. Chem., 53, 4779) and is described in the scheme below.
(§3) To a blue colored stirred solution of (2S,3S,4S,5S,6R)-2-(4-aminobutoxy)-6-(hydroxymethyl)tetrahydropyran-3,4,5-triol (2.21 mg, 0.009 mmol) and the (2E)-2-[(2E,4E)-5-[3,3-dimethyl-5-sulfonato-1-(3-sulfonatopropyl)indol-1-ium-2-yl]penta-2,4-dienylidene]-3-[6-(2,5-dioxopyrrolidin-1-yl)oxy-6-oxo-hexyl]-3-methyl-1-(3-sulfonatopropyl)indoline-5-sulfonate (Potassium Ion (3)) (4.9 mg, 0.0044 mmol) in DMF (44 μL) is added Et3N (5.4 mg, 7.0 μL, 0.053 mmol) at RT. The solution is stirred at room temperature over night, concentrated, dissolved in water and purified on 12 g C-18 silica gel cartridge on Isolera system using acetonitrile in water (0 to 40%, 10 CV) and followed by lyophilization to afford Alexa 647 mannoside probe (3.3 mg, 34%) as deep blue solid.
(§4) The Kd values of the compounds are determined from dose response curves using twelve concentrations per compound in duplicate. Curves are fitted to data points using Fluorescence Polarization competitive displacement analysis, and Kds are interpolated from the resulting curves using GraphPad Prism software, version […] (GraphPad software Inc., San Diego, Calif., USA).

Assay [2] has as its target T1, FimH-CRD. In words: Competitive binding assay by fluorescence polarization, assay 2 (compounds prepared by a robotics system, plates frozen and thawed). On the set-up: species or system E. coli. As to the method:
as §1, §2, §3, §4

Assay [3] has as its system bacterial strain LF82 binding to the glycoprotein BSA-(Mannose)3. In words: Bacterial Binding Assay (BBA). As to conditions: read-out: Bacterial Binding Assay IC50, LF82/Luciferase strain binding to BSA-(Man)3 coated plates, luminescence. The assay is classed as cell-based, Escherichia coli. The essentials:
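Inhibition of LF82/luciferase E. coli adhesion is read as luminescence after washing off unbound cells. Compound and bacteria (10^7 per well) are co-incubated 40-75 min at room temperature on wells coated with 0.5-2 μg/mL BSA-(Man)3, with BSA-only wells as background; IC50 values derived.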

[4] abbreviates: Assay 1 Kd, 5 nM Alexa 647 mannoside probe, 60 nM FimH-CRD, replicate values in one cell.
[5] abbreviates: read-out: Assay 1 Kd, 5 nM Alexa 647 mannoside probe, 60 nM FimH-CRD, replicate values in one cell.
Where [6] appears, read: Assay 2 Kd, 5 nM Alexa 647 mannoside probe, 60 nM FimH-CRD, replicate values in one cell.
Where [7] appears, read: read-out: Assay 2 Kd, 5 nM Alexa 647 mannoside probe, 60 nM FimH-CRD, replicate values in one cell.

The structures appear in SMILES notation. Where “and” joins values, the source holds several entries; their conditions need not be identical. Equal values may be shown once.

T1 sequence (P08191 22-177): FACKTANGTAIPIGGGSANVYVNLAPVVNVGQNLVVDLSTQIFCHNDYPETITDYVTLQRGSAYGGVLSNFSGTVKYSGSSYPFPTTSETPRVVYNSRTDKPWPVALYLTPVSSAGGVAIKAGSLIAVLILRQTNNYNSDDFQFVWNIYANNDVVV

`OC[C@H]1O[C@H](c2ccc(-c3ccc([C@H]4O[C@H](CO)[C@@H](O)[C@H](O)[C@@H]4O)cc3)cc2)[C@@H](O)[C@@H](O)[C@@H]1O` [Compound 6, (2R,2 ,3S,3,4R,4,5S,5,6R,6)-6,6([1,1Biphenyl]-4,4diyl)bis(2-(hydroxymethyl)tetrahydro-2H-pyran-3,4,5-triol)]: the dissociation constant Kd (as a rule, the constant that tells how readily two partners part at equilibrium) was < 5 nM at FimH-CRD [1] (setting [4]); < 5 nM on FimH-CRD [1] (setting [5]); < 5 nM and 23 nM on FimH-CRD [2] (setting [6]). Moreover, the IC50 in assay [3] worked out at 95 nM.

As for `OC[C@H]1O[C@H](CCc2cccc([C@H]3O[C@H](CO)[C@@H](O)[C@H](O)[C@@H]3O)c2)[C@@H](O)[C@@H](O)[C@@H]1O` [Compound 37, ((2R,3S,4R,5S,6R)-2-(Hydroxymethyl)-6-[2-[3-[(2R,3S,4R,5S,6R)-3,4,5-trihydroxy-6-(hydroxymethyl)tetrahydropyran-2-yl]phenyl]ethyl]tetrahydropyran-3,4,5-triol)], the Kd at FimH-CRD [1] (setting [4]) is 7 nM; on FimH-CRD [2] (setting [6]), 18 nM and < 5 nM and 12 nM. Also, the IC50 in assay [3] is 1650 nM.

On to `OC[C@H]1O[C@H](c2cn([C@H]3O[C@H](CO)[C@@H](O)[C@H](O)[C@@H]3O)nn2)[C@@H](O)[C@@H](O)[C@@H]1O` [Compound 42, ((2R,3S,4R,5S,6R)-2-(Hydroxymethyl)-6-[1-[(2S,3S,4S,5S,6R)-3,4,5-trihydroxy-6-(hydroxymethyl)tetrahydropyran-2-yl]triazol-4-yl]tetrahydropyran-3,4,5-triol)], for which the Kd is 114 nM and 377 nM on FimH-CRD [1] (setting [4]); 140 nM and 145 nM on FimH-CRD [2] (setting [6]).

For the compound `OC[C@H]1O[C@H](C/C=C/c2cccc(/C=C/C[C@H]3O[C@H](CO)[C@@H](O)[C@H](O)[C@@H]3O)c2)[C@@H](O)[C@@H](O)[C@@H]1O` [Compound 25, ((2R,3S,4R,5S,6R)-2-(Hydroxymethyl)-6-[(E)-3-[3-[(E)-3-[(2R,3S,4R,5S,6R)-3,4,5-trihydroxy-6-(hydroxymethyl)tetrahydropyran-2-yl]prop-1-enyl]phenyl]allyl]tetrahydropyran-3,4,5-triol)], the Kd at FimH-CRD [1] (setting [4]) is < 5 nM; on FimH-CRD [1] (setting [5]), < 5 nM; at FimH-CRD [2] (setting [6]) it was 21 nM and 10 nM and 12 nM. Also, the IC50 in assay [3] is 1400 nM.

Turning to `OC[C@H]1O[C@H](c2ccc([C@H]3O[C@H](CO)[C@@H](O)[C@H](O)[C@@H]3O)cc2)[C@@H](O)[C@@H](O)[C@@H]1O` [Compound 1, (2R,3S,4R,5S,6R)-2-(Hydroxymethyl)-6-[4-[(2R,3S,4R,5S,6R)-3,4,5-trihydroxy-6 (hydroxymethyl)tetrahydropyran-2-yl]phenyl]tetrahydropyran-3,4,5-triol], the dissociation constant (Kd) on FimH-CRD [1] (setting [4]) was < 5 nM (2×) and 8 nM; on FimH-CRD [2] (setting [6]), 13 nM and 8 nM. Moreover, the IC50 in assay [3] came to 5270 nM.

In the case of `O=C(NCCCCCNC(=O)c1cccc([C@H]2O[C@H](CO)[C@@H](O)[C@H](O)[C@@H]2O)c1)c1cccc([C@H]2O[C@H](CO)[C@@H](O)[C@H](O)[C@@H]2O)c1` [Compound 11, (R,R,S,R,S)-N,N′-(Pentane-1,5-diyl)bis(3-((2R,3S,4R,5S,6R)-3,4,5-trihydroxy-6-(hydroxymethyl)tetrahydro-2H-pyran-2-yl)benzamide)], the Kd on FimH-CRD [1] (setting [4]) is < 5 nM and 11 nM; at FimH-CRD [2] (setting [6]) it was 16 nM.

As for `OC[C@H]1O[C@H](CCc2ccc(CC[C@H]3O[C@H](CO)[C@@H](O)[C@H](O)[C@@H]3O)cc2)[C@@H](O)[C@@H](O)[C@@H]1O` [Compound 22, ((2R,3S,4R,5S,6R)-2-(Hydroxymethyl)-6-[2-[4-[2-[(2R,3S,4R,5S,6R)-3,4,5-trihydroxy-6-(hydroxymethyl)tetrahydropyran-2-yl]ethyl]phenyl]ethyl]tetrahydropyran-3,4,5-triol)], the Kd on FimH-CRD [1] (setting [4]) was < 5 nM and 12 nM; at FimH-CRD [2] (setting [6]), 14 nM and < 5 nM and 11 nM. The IC50 in assay [3] worked out at 1600 nM.

In the case of `OC[C@H]1O[C@H](CCCc2ccc(CCC[C@H]3O[C@H](CO)[C@@H](O)[C@H](O)[C@@H]3O)cc2)[C@@H](O)[C@@H](O)[C@@H]1O` [Compound 38, (2R,3S,4R,5S,6R)-2-(hydroxymethyl)-6-[3-[4-[3-[(2R,3S,4R,5S,6R)-3,4,5-trihydroxy-6-(hydroxymethyl)tetrahydropyran-2-yl]propyl]phenyl]propyl]tetrahydropyran-3,4,5-triol], the Kd was < 5 nM at FimH-CRD [1] (setting [4]); < 5 nM on FimH-CRD [1] (setting [5]); < 5 nM (2×) and 21 nM at FimH-CRD [2] (setting [6]). The IC50 in assay [3] was determined as 410 nM.

Consider `OC[C@H]1O[C@H](CCCC[C@H]2O[C@H](CO)[C@@H](O)[C@H](O)[C@@H]2O)[C@@H](O)[C@@H](O)[C@@H]1O` [Compound 23], for which the Kd is 9 nM and 12 nM at FimH-CRD [1] (setting [4]); 25 nM and < 5 nM and 14 nM on FimH-CRD [2] (setting [6]). For the same compound, the IC50 in assay [3] was 5800 nM.

Consider `OC[C@H]1O[C@H](c2ccc(-c3cccc([C@H]4O[C@H](CO)[C@@H](O)[C@H](O)[C@@H]4O)c3)cc2)[C@@H](O)[C@@H](O)[C@@H]1O` [Compound 5, (2R,2,3S,3,4R,4,5S,5,6R,6)-6,6([1,1Biphenyl]-3,4diyl)bis(2-(hydroxymethyl)tetrahydro-2H-pyran-3,4,5-triol)], for which the Kd was < 5 nM on FimH-CRD [1] (setting [4]); < 5 nM at FimH-CRD [1] (setting [5]); 49 nM and < 5 nM (2×) on FimH-CRD [2] (setting [6]). For the same compound, the IC50 in assay [3] was determined as 580 nM.

Regarding `O=C(NCCCNC(=O)c1cccc([C@H]2O[C@H](CO)[C@@H](O)[C@H](O)[C@@H]2O)c1)c1cccc([C@H]2O[C@H](CO)[C@@H](O)[C@H](O)[C@@H]2O)c1` [Compound 9, (R,R,S,R,S)-N,N′-(Propane-1,3-diyl)bis(3-((2R,3S,4R,5S,6R)-3,4,5-trihydroxy-6-(hydroxymethyl)tetrahydro-2H-pyran-2-yl)benzamide)], the Kd is 7 nM and 12 nM at FimH-CRD [1] (setting [4]); 24 nM on FimH-CRD [2] (setting [6]).

For the compound `O=C(Nc1ccc(Cc2ccc(NC(=O)c3cccc([C@H]4O[C@H](CO)[C@@H](O)[C@H](O)[C@@H]4O)c3)cc2)cc1)c1cccc([C@H]2O[C@H](CO)[C@@H](O)[C@H](O)[C@@H]2O)c1` [Compound 16], the Kd on FimH-CRD [1] (setting [4]) was < 5 nM and 6 nM; at FimH-CRD [2] (setting [6]) it was 26 nM and < 5 nM and 9 nM. In assay [3], the IC50 was 1510 nM.

Turning to `OC[C@H]1O[C@H](c2cccc(CCCCc3cccc([C@H]4O[C@H](CO)[C@@H](O)[C@H](O)[C@@H]4O)c3)c2)[C@@H](O)[C@@H](O)[C@@H]1O` [Compound 52, ((2R,3S,4R,5S,6R)-2-(Hydroxymethyl)-6-[3-[4-[3-[(2R,3S,4R,5S,6R)-3,4,5-trihydroxy-6-(hydroxymethyl)tetrahydropyran-2-yl]phenyl]butyl]phenyl]tetrahydropyran-3,4,5-triol)], the Kd at FimH-CRD [2] (setting [6]) and at FimH-CRD [2] (setting [7]) was < 5 nM in each case. Moreover, the IC50 in assay [3] turned out to be 660 nM.

`OC[C@H]1O[C@H](C#Cc2ccc3ccc(C#C[C@H]4O[C@H](CO)[C@@H](O)[C@H](O)[C@@H]4O)cc3c2)[C@@H](O)[C@@H](O)[C@@H]1O` [Compound 58, (2R,3S,4R,5S,6R)-2-(Hydroxymethyl)-6-[2-[7-[2-[(2R,3S,4R,5S,6R)-3,4,5-trihydroxy-6-(hydroxymethyl)tetrahydropyran-2-yl]ethynyl]-2-naphthyl]ethynyl]tetrahydropyran-3,4,5-triol]: the Kd at FimH-CRD [2] (setting [6]) and on FimH-CRD [2] (setting [7]) was < 5 nM in each case. Also, the IC50 in assay [3] came out at 17 nM.
